Laboratory results published in patent US20100041089A1, “IMPROVED METHOD FOR DETECTING CHEMICAL […]” (priority 2006, published 2010).

System: yeast genes (expressed mRNA)
Assay: DNA chip measurement of expressed mRNA of yeast genes after culture with a toxic chemical substance
Type: cell-based, Saccharomyces cerevisiae S288C
Conditions: for level of expressed mRNA in the presence of chemical substance / level in the absence of chemical substance: cultured two hours with the chemical substance; for The level of expressed mRNA in the presence of chemical substance/The level of expressed mRNA in the absence of chemical substance: cultured two hours with substance
Description: Yeast (Saccharomyces cerevisiae S288C (a SUC2mal mel gap2 CUP1)) were cultured at 25° C. on YPD medium (yeast extract 1%, polypeptone 2%, glucose 2%). One of toxic chemical substances was added to the cell at logarithmic growth phase, and the cell was further cultured for two hours. Cell was cultured without any chemical substance in the same condition, and was used as a control. Concentrations of the chemical substances were defined to inhibit the growth of the yeast but not lead to death.
After the completion of cultivation, the culture was centrifuged to collect the cells. To the cells, sodium acetate buffer (50 mM sodium acetate, 10 mM EDTA, 1% SDS) was added, and the mixture was shaken at 65° C. for five minutes, followed by returning to room temperature, and obtaining the supernatant, which procedure was repeated two times. To the supernatant, ½ amount of a solution of phenol/chloroform (1:1) was added, and the mixture was centrifuged to give a supernatant, an equal amount of chloroform was added, and the mixture was centrifuged to give a supernatant. To the supernatant, an equal amount of isopropanol containing 0.3 M sodium acetate was added, and the mixture was allowed to stand at room temperature for 30 minutes, after which the mixture was centrifuged to give sediment of the whole RNAs. Seventy % ethanol was added to the sediment, and the mixture was again centrifuged to give sediment, which was then dried and dissolved in water. mRNA was isolated from the whole RNAs as followings. In view of the fact that a poly A chain is attached to the 3′ terminus of mRNA, a polynucleotide having a poly T structure which was immobilized on the surface of latex beads was used to trap the mRNA, and then the mRNA was washed and eluted with spine column (Oligotex-dT30<Super>mRNA Purification Kit, Takara). Reverse transcription of the mRNA was conducted with a reverse transcriptase (Super Script II Reverse Transcriptase; catalogue No. 18064-014, GibcoBRL) using fluorescence-labeled nucleotides to give cDNAs that were introduced with Cy3-dUTP or Cy5-dUTP during the reverse transcription.
The labeled cDNAs were dissolved in TE buffer (10 mM Tris-HCl/1 mM EDTA, pH 8.0), and the solution was dropped on the DNA chip containing the whole genes of yeast (DNA Chip Research Inc. Japan) so that the cDNAs were hybridized on the DNA chip at 65° C. for over 12 hours. The fluoresces intensity of the DNA chip was read with a scanner, and the ratio relative to the fluorescence intensity resulting from the absence of chemical substance was estimated as the following, which is shown in Tables 1 to 9.
In the Tables, “Intensity” indicated in the rightmost column is a value of the level of expressed mRNA of each gene in control cells as divided by the average level of the expressions of the whole genes. A gene of which mRNA level is lower in control, and is higher in cases of addition of chemical substance, is especially useful in the detection of toxic substances.
Here, when a ratio of an amount of mRNA expressed in the presence of the chemical substance to an amount of mRNA expressed in the absence of the chemical substance is two or more, then it is considered significant.

Substance: Na2As [(1)]
- level of expressed mRNA in the presence of chemical substance / level in the absence of chemical substance (yeast gene YNL058C): 2.0
- level of expressed mRNA in the presence of chemical substance / level in the absence of chemical substance (yeast gene YNL063W): 0.9
- The level of expressed mRNA in the presence of chemical substance/The level of expressed mRNA in the absence of chemical substance (yeast gene YNL074C): 0.9
- The level of expressed mRNA in the presence of chemical substance/The level of expressed mRNA in the absence of chemical substance (yeast gene YNL092W): 1.3
- The level of expressed mRNA in the presence of chemical substance/The level of expressed mRNA in the absence of chemical substance (yeast gene YNL115C): 0.7
- The level of expressed mRNA in the presence of chemical substance/The level of expressed mRNA in the absence of chemical substance (yeast gene YNL156C): 1.1
- level of expressed mRNA in the presence of chemical substance / level in the absence of chemical substance (yeast gene YNL176C): 1.1
- level of expressed mRNA in the presence of chemical substance / level in the absence of chemical substance (yeast gene YNL194C): 1.6
- level of expressed mRNA in the presence of chemical substance / level in the absence of chemical substance (yeast gene YNL200C): 1.0
- The level of expressed mRNA in the presence of chemical substance/The level of expressed mRNA in the absence of chemical substance (yeast gene YNL234W): 1.1
- level of expressed mRNA in the presence of chemical substance / level in the absence of chemical substance (yeast gene YNL253W): 1.3
- level of expressed mRNA in the presence of chemical substance / level in the absence of chemical substance (yeast gene YNL276C): 1.3
- The level of expressed mRNA in the presence of chemical substance/The level of expressed mRNA in the absence of chemical substance (yeast gene YNL281W): 1.0
- The level of expressed mRNA in the presence of chemical substance/The level of expressed mRNA in the absence of chemical substance (yeast gene YNL305C): 0.9
- level of expressed mRNA in the presence of chemical substance / level in the absence of chemical substance (yeast gene YNR051C): 0.7
- The level of expressed mRNA in the presence of chemical substance/The level of expressed mRNA in the absence of chemical substance (yeast gene YNR068C): 1.2
- level of expressed mRNA in the presence of chemical substance / level in the absence of chemical substance (yeast gene YOL026C): 1.2
- The level of expressed mRNA in the presence of chemical substance/The level of expressed mRNA in the absence of chemical substance (yeast gene YOL032W): 1.3
- The level of expressed mRNA in the presence of chemical substance/The level of expressed mRNA in the absence of chemical substance (yeast gene YOL036W): 0.8
- The level of expressed mRNA in the presence of chemical substance/The level of expressed mRNA in the absence of chemical substance (yeast gene YOL047C): 1.4
- The level of expressed mRNA in the presence of chemical substance/The level of expressed mRNA in the absence of chemical substance (yeast gene YOL071W): 1.3
- The level of expressed mRNA in the presence of chemical substance/The level of expressed mRNA in the absence of chemical substance (yeast gene YOL082W): 1.0
- The level of expressed mRNA in the presence of chemical substance/The level of expressed mRNA in the absence of chemical substance (yeast gene YOL083W): 1.1
- The level of expressed mRNA in the presence of chemical substance/The level of expressed mRNA in the absence of chemical substance (yeast gene YOL117W): 1.0
- The level of expressed mRNA in the presence of chemical substance/The level of expressed mRNA in the absence of chemical substance (yeast gene YOL131W): 1.0
- The level of expressed mRNA in the presence of chemical substance/The level of expressed mRNA in the absence of chemical substance (yeast gene YOL150C): 4.1
- The level of expressed mRNA in the presence of chemical substance/The level of expressed mRNA in the absence of chemical substance (yeast gene YOL162W): 2.0
- The level of expressed mRNA in the presence of chemical substance/The level of expressed mRNA in the absence of chemical substance (yeast gene YOR019W): 2.9
- level of expressed mRNA in the presence of chemical substance / level in the absence of chemical substance (yeast gene YOR022C): 1.3
- level of expressed mRNA in the presence of chemical substance / level in the absence of chemical substance (yeast gene YOR087W): 0.7
- level of expressed mRNA in the presence of chemical substance / level in the absence of chemical substance (yeast gene YOR138C): 0.8
- The level of expressed mRNA in the presence of chemical substance/The level of expressed mRNA in the absence of chemical substance (yeast gene YOR197W): 0.8
- level of expressed mRNA in the presence of chemical substance / level in the absence of chemical substance (yeast gene YOR253W): 0.9
- level of expressed mRNA in the presence of chemical substance / level in the absence of chemical substance (yeast gene YOR267C): 0.8
- level of expressed mRNA in the presence of chemical substance / level in the absence of chemical substance (yeast gene YOR325W): 1.0
- level of expressed mRNA in the presence of chemical substance / level in the absence of chemical substance (yeast gene YPL005W): 1.0
- The level of expressed mRNA in the presence of chemical substance/The level of expressed mRNA in the absence of chemical substance (yeast gene YPL087W): 1.0
- level of expressed mRNA in the presence of chemical substance / level in the absence of chemical substance (yeast gene YPL150W): 0.7
- level of expressed mRNA in the presence of chemical substance / level in the absence of chemical substance (yeast gene YPL152W): 1.4
- level of expressed mRNA in the presence of chemical substance / level in the absence of chemical substance (yeast gene YPL168W): 1.1
- level of expressed mRNA in the presence of chemical substance / level in the absence of chemical substance (yeast gene YPL180W): 0.9
- level of expressed mRNA in the presence of chemical substance / level in the absence of chemical substance (yeast gene YPL188W): 1.3
- The level of expressed mRNA in the presence of chemical substance/The level of expressed mRNA in the absence of chemical substance (yeast gene YPL196W): 1.3
- The level of expressed mRNA in the presence of chemical substance/The level of expressed mRNA in the absence of chemical substance (yeast gene YPL206C): 1.0
- level of expressed mRNA in the presence of chemical substance / level in the absence of chemical substance (yeast gene YPL221W): 0.9
- The level of expressed mRNA in the presence of chemical substance/The level of expressed mRNA in the absence of chemical substance (yeast gene YPL222W): 0.9
- level of expressed mRNA in the presence of chemical substance / level in the absence of chemical substance (yeast gene YPL225W): 1.3
- The level of expressed mRNA in the presence of chemical substance/The level of expressed mRNA in the absence of chemical substance (yeast gene YPR023C): 1.2
- level of expressed mRNA in the presence of chemical substance / level in the absence of chemical substance (yeast gene YPR049C): 1.0
- level of expressed mRNA in the presence of chemical substance / level in the absence of chemical substance (yeast gene YPR146C): 0.8
- level of expressed mRNA in the presence of chemical substance / level in the absence of chemical substance (yeast gene YPR148C): 1.1
- The level of expressed mRNA in the presence of chemical substance/The level of expressed mRNA in the absence of chemical substance (yeast gene YPR151C): 2.3
- level of expressed mRNA in the presence of chemical substance / level in the absence of chemical substance (yeast gene YPR172W): 1.1
